Patent US20230002357A1, “7-PYRIMIDINE-2-YL-OXY-INDAZOLE DERIVATIVES AND THEIR USE AS HERBICIDES” (SYNGENTA CROP PROTECTION AG, priority 2019, published 2023)

How the values were obtained:
Type in all cases: in vivo
Details in all cases: 250 g/ha, evaluated after 13 days
[1] = test system: Echinochloa crus-galli (ECHCG); experiment: Post-emergence Test, glasshouse, ECHCG
How it was run: (§1)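 Damage was scored 13 days after treatment on a five-point scale (1=0-20% up to 5=81-100%). Plants in soil were sprayed one day after sowing for pre-emergence or eight days after for post-emergence, at 250 g/ha unless otherwise stated. The glasshouse was held at 24/16 °C with 14 h light.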

Setaria faberi (SETFA) [2] = experiment: Pre-emergence Test, glasshouse, SETFA
How it was run: as §1

IPOHE [3] = experiment: Pre-emergence Test, glasshouse, IPOHE
How it was run: as §1

IPOHE [4] = experiment: Post-emergence Test, glasshouse, IPOHE
How it was run: as §1

[5] = test system: Echinochloa crus-galli (ECHCG); experiment: Pre-emergence Test, glasshouse, ECHCG
How it was run: as §1

ABUTH [6] = experiment: Pre-emergence Test, glasshouse, ABUTH
How it was run: as §1

Setaria faberi (SETFA) [7] = experiment: Post-emergence Test, glasshouse, SETFA
How it was run: as §1

ABUTH [8] = experiment: Post-emergence Test, glasshouse, ABUTH
How it was run: as §1

[9] = test system: Amaranthus retoflexus (AMARE); experiment: Pre-emergence Test, glasshouse, AMARE
How it was run: as §1

[10] = test system: Amaranthus retoflexus (AMARE); experiment: Post-emergence Test, glasshouse, AMARE
How it was run: as §1

CC(C)CCn1nc(Cl)c2cccc(Oc3ncc(Cl)cn3)c21 [Compound 1.056]
percentage damage caused to the plant, five-point scale, ECHCG [1]: 2 (2=21-40%)
percentage damage caused to the plant, five-point scale, SETFA (Setaria faberi (SETFA) [2]): 4 (4=61-80%)
percentage damage caused to the plant, five-point scale, IPOHE (IPOHE [3]): 1 (1=0-20%)
percentage damage caused to the plant, five-point scale, IPOHE (IPOHE [4]): 3 (3=41-60%)
percentage damage caused to the plant, five-point scale, ECHCG [5]: 3 (3=41-60%)
percentage damage caused to the plant, five-point scale, ABUTH (ABUTH [6]): 1 (1=0-20%)
percentage damage caused to the plant, five-point scale, SETFA (Setaria faberi (SETFA) [7]): 2 (2=21-40%)
percentage damage caused to the plant, five-point scale, ABUTH (ABUTH [8]): 3 (3=41-60%)
percentage damage caused to the plant, five-point scale, AMARE [9]: 4 (4=61-80%)
percentage damage caused to the plant, five-point scale, AMARE [10]: 4 (4=61-80%)

COc1nn(CCCC(F)(F)F)c2c(Oc3ncc(Cl)cn3)cccc12 [Compound 1.033, 7-(5-chloropyrimidin-2-yl)oxy-3-methoxy-1-(4,4,4-trifluorobutyl)indazole]
percentage damage caused to the plant, five-point scale, ECHCG [1]: 1 (1=0-20%)
percentage damage caused to the plant, five-point scale, SETFA (Setaria faberi (SETFA) [2]): 1 (1=0-20%)
percentage damage caused to the plant, five-point scale, IPOHE (IPOHE [3]): 1 (1=0-20%)
percentage damage caused to the plant, five-point scale, IPOHE (IPOHE [4]): 1 (1=0-20%)
percentage damage caused to the plant, five-point scale, ECHCG [5]: 1 (1=0-20%)
percentage damage caused to the plant, five-point scale, ABUTH (ABUTH [6]): 1 (1=0-20%)
percentage damage caused to the plant, five-point scale, SETFA (Setaria faberi (SETFA) [7]): 1 (1=0-20%)
percentage damage caused to the plant, five-point scale, ABUTH (ABUTH [8]): 1 (1=0-20%)
percentage damage caused to the plant, five-point scale, AMARE [9]: 2 (2=21-40%)
percentage damage caused to the plant, five-point scale, AMARE [10]: 1 (1=0-20%)

C=CCCn1nc(Cl)c2cccc(Oc3ncc(Cl)cn3)c21 [Compound 1.054]
percentage damage caused to the plant, five-point scale, ECHCG [1]: 3 (3=41-60%)
percentage damage caused to the plant, five-point scale, SETFA (Setaria faberi (SETFA) [2]): 5 (5=81-100%)
percentage damage caused to the plant, five-point scale, IPOHE (IPOHE [3]): 1 (1=0-20%)
percentage damage caused to the plant, five-point scale, IPOHE (IPOHE [4]): 2 (2=21-40%)
percentage damage caused to the plant, five-point scale, ECHCG [5]: 4 (4=61-80%)
percentage damage caused to the plant, five-point scale, ABUTH (ABUTH [6]): 1 (1=0-20%)
percentage damage caused to the plant, five-point scale, SETFA (Setaria faberi (SETFA) [7]): 2 (2=21-40%)
percentage damage caused to the plant, five-point scale, ABUTH (ABUTH [8]): 4 (4=61-80%)
percentage damage caused to the plant, five-point scale, AMARE [9]: 4 (4=61-80%)
percentage damage caused to the plant, five-point scale, AMARE [10]: 4 (4=61-80%)

Cc1cnc(Oc2cccc3c(Cl)nn(CCCC(F)(F)F)c23)nc1 [Compound 1.049]
percentage damage caused to the plant, five-point scale, ECHCG [1]: 5 (5=81-100%)
percentage damage caused to the plant, five-point scale, SETFA (Setaria faberi (SETFA) [2]): 5 (5=81-100%)
percentage damage caused to the plant, five-point scale, IPOHE (IPOHE [3]): 1 (1=0-20%)
percentage damage caused to the plant, five-point scale, IPOHE (IPOHE [4]): 3 (3=41-60%)
percentage damage caused to the plant, five-point scale, ECHCG [5]: 5 (5=81-100%)
percentage damage caused to the plant, five-point scale, ABUTH (ABUTH [6]): 3 (3=41-60%)
percentage damage caused to the plant, five-point scale, SETFA (Setaria faberi (SETFA) [7]): 4 (4=61-80%)
percentage damage caused to the plant, five-point scale, ABUTH (ABUTH [8]): 5 (5=81-100%)
percentage damage caused to the plant, five-point scale, AMARE [9]: 5 (5=81-100%)
percentage damage caused to the plant, five-point scale, AMARE [10]: 4 (4=61-80%)

FC(F)(F)CCCn1nc(Br)c2c(Br)ccc(Oc3ncc(Cl)cn3)c21 [Compound 1.015]
percentage damage caused to the plant, five-point scale, ECHCG [1]: 2 (2=21-40%)
percentage damage caused to the plant, five-point scale, SETFA (Setaria faberi (SETFA) [2]): 1 (1=0-20%)
percentage damage caused to the plant, five-point scale, IPOHE (IPOHE [3]): 1 (1=0-20%)
percentage damage caused to the plant, five-point scale, IPOHE (IPOHE [4]): 1 (1=0-20%)
percentage damage caused to the plant, five-point scale, ECHCG [5]: 1 (1=0-20%)
percentage damage caused to the plant, five-point scale, ABUTH (ABUTH [6]): 1 (1=0-20%)
percentage damage caused to the plant, five-point scale, SETFA (Setaria faberi (SETFA) [7]): 2 (2=21-40%)
percentage damage caused to the plant, five-point scale, ABUTH (ABUTH [8]): 4 (4=61-80%)
percentage damage caused to the plant, five-point scale, AMARE [9]: 2 (2=21-40%)
percentage damage caused to the plant, five-point scale, AMARE [10]: 4 (4=61-80%)

Cl/C=C/Cn1nc(Cl)c2cccc(Oc3ncc(Cl)cn3)c21 [Compound 1.069]
percentage damage caused to the plant, five-point scale, ECHCG [1]: 3 (3=41-60%)
percentage damage caused to the plant, five-point scale, SETFA (Setaria faberi (SETFA) [2]): 5 (5=81-100%)
percentage damage caused to the plant, five-point scale, IPOHE (IPOHE [3]): 1 (1=0-20%)
percentage damage caused to the plant, five-point scale, IPOHE (IPOHE [4]): 2 (2=21-40%)
percentage damage caused to the plant, five-point scale, ECHCG [5]: 3 (3=41-60%)
percentage damage caused to the plant, five-point scale, ABUTH (ABUTH [6]): 2 (2=21-40%)
percentage damage caused to the plant, five-point scale, SETFA (Setaria faberi (SETFA) [7]): 2 (2=21-40%)
percentage damage caused to the plant, five-point scale, ABUTH (ABUTH [8]): 4 (4=61-80%)
percentage damage caused to the plant, five-point scale, AMARE [9]: 3 (3=41-60%)
percentage damage caused to the plant, five-point scale, AMARE [10]: 5 (5=81-100%)
